These results are taken from US10722523B2, “Chemoimmunotherapy for epithelial cancer” (THE REGENTS OF THE UNIVERSITY OF CALIFORNIA, priority 2015, dated 2020).

The test system of one assay is Myc-Cap (MC) tumors. Briefly: s.c. Myc-Cap (MC) prostate tumor model. The assay is classed as in vivo, mouse. The text has this: All TRAMP mice, their derivatives and s.c. Myc-Cap transplantation were in the FVB genetic background and their basic immune parameters are shown in FIG. 15a-m. For s.c. TRAMP-C2 tumors, C57BL/6 mice were used. In both s.c. tumors, 2-3×10^6 cells/mouse were transplanted. More detailed information is as follows.
Mouse treatment studies were “matched design control trials.” Accordingly, mice were randomly chosen and paired based on sex (male), age (FIG. 6a) and tumor size. For transplanted tumor models, tumor size was defined by the median tumor volume (e.g. 400 mm^3, for late treatments, FIG. 6a,f). For TRAMP transgenic tumor models, treatment decisions were made based on age and mice were randomly chosen including a control littermate. An identification code was assigned to each tumor-bearing mouse both in the transplanted and transgenic models, and the investigators were blinded to treatment allocation at the time of tumor volume measurement, autopsy and analysis.
2×10^6 Myc-Cap^11 or 3×10^6 TRAMP-C2^12 cells (purchased from ATCC) were s.c. injected into the right flank. Tumors were measured every 2-3 days using a caliper. Tumor volumes were calculated as width^2×length/2.
B cells were depleted as previously described^13. Mice were weekly injected (i.p.) with a mixture of monoclonal antibodies, each at 150 μg/mouse: rat anti-mouse CD19 (clone 1D3), rat anti-mouse B220 (clone RA36B2), and mouse anti-mouse CD22 (clone CY34). After 48 hrs, the mice were injected with a secondary antibody (mouse anti-rat kappa chain; GeneTex) at 150 μg/mouse. In addition, mice were injected weekly, but not on the same day, with 250 μg/mouse rat anti-mouse CD20 (Genentech). Rat anti-mouse IgG2a and IgG1 were used as isotype controls. Mice were treated for 3 weeks in total (FIG. 1g; FIG. 7i-p). […]

The subject of the next assay is Myc-Cap (MC) cells. Briefly: Cell death and autophagy of Myc-Cap cells in vitro (Annexin V/PI, LC3A flow cytometry). The assay is classed as cell-based, mouse. The source says: All results are means±s.e.m.
For adoptive T cell transfer (ATCT) CD8^+ T cells were isolated from single cell suspensions, prepared from spleens and lymph nodes as described above, using CD8α-specific microbeads and MACS-columns (both Miltenyi Biotec GmbH, Bergisch Gladbach, Germany), and 5×10^6 CD8^+ T cells were transferred intraperitoneally (i.p.; FIG. 14a-j). For adoptive B cell transfer (ABCT), B cells (B220^+/CD19^+) were isolated from single cell suspensions prepared from spleens using CD19- and B220-specific microbeads and MACS-columns, and 5×10^6 B cells were transferred i.p. (FIG. 4g-h, FIG. 12n,o). For adoptive splenocytes transfer (ACT), single cell suspensions prepared from spleens were transferred i.p., with one total spleen injected per mouse. Labelling with 5-(and 6-) carboxyfluorescein diacetate succinimidyl ester (CFSE; Molecular Probes, Eugene, Oreg.) was done according to manufacturer's protocol. 5×10^6 CD8^+ T cells or 7×10^6 B cells were transferred (equal to one spleen per mouse; FIG. 5a-i and FIG. 14k-q). For combined adoptive B and T cell transfer (FIG. 5j-1, FIG. 14r-t), T cells were isolated from WT-FVB mice immunized with a Myc-Cap cell lysate as previously described^10. […] The extent of cell death was determined by flow cytometry, showing that more than 90% of cells were positive for Annexin V and PI. The dead cells were injected subcutaneously (s.c.) into WT-FVB mice. Seven days later, T cells were isolated from single cell suspensions of spleen and LN using a Pan T cell isolation Kit (Miltenyi Biotec). B cells were isolated from spleens of naïve FVB-WT or FVB-Tgfbr2^ΔB mice using a Pan B cell isolation kit (Miltenyi Biotec). MC-tumor bearing Rag1^−/− mice received 5×10^6 T cells with or without 5×10^6 B cells (98% pure) from WT or Tgfbr2^ΔB mice. Purity was analyzed on a Beckman Coulter Cyan ADP flow cytometer and was always >98%.
Background: In flow cytometry, cells or beads pass a laser one at a time.

The next assay deals with TRAMP-C2 tumors. Description: s.c. TRAMP-C2 tumor model with adoptive T cell transfer (ATCT). The format is in vivo, mouse.

From the text for TRAMP-C2 tumors: Immunogenic TRAMP-C2 cells were s.c. inoculated into WT or Tcrβ^−/− mice. […] Immunogenic TRAMP-C2 cells were s.c. inoculated into WT or Rag1^−/− −×OT-1 mice (no B cells), that harbor CD8^+ T cells specific for chicken ovalbumin which is not expressed by TRAMP-C2 cells. […] All results are means±s.e.m. Mann-Whitney and t tests were used to calculate statistical significance.
For adoptive T cell transfer (ATCT) CD8^+ T cells were isolated from single cell suspensions, prepared from spleens and lymph nodes as described above, using CD8α-specific microbeads and MACS-columns (both Miltenyi Biotec GmbH, Bergisch Gladbach, Germany), and 5×10^6 CD8^+ T cells were transferred intraperitoneally (i.p.; FIG. 14a-j). […] For adoptive splenocytes transfer (ACT), single cell suspensions prepared from spleens were transferred i.p., with one total spleen injected per mouse. Labelling with 5-(and 6-) carboxyfluorescein diacetate succinimidyl ester (CFSE; Molecular Probes, Eugene, Oreg.) was done according to manufacturer's protocol. […] Purity was analyzed on a Beckman Coulter Cyan ADP flow cytometer and was always >98%.

For `O=C1[O][Pt]2([NH][C@@H]3CCCC[C@H]3[NH]2)[O]C1=O` [oxaliplatin], in the assay with Myc-Cap (MC) tumors (Cd8a−/− mice), the “response of MC tumors” value is listed as “No response”. The “response of MC tumors to oxaliplatin with IgA ablation” value in the assay with Myc-Cap (MC) tumors (Iga−/− mice versus WT) is “potentiated the response to oxaliplatin”. Moreover, the “regression of MC tumors raised in Jh−/− mice” value in the assay with Myc-Cap (MC) tumors (LD, 6 mg/kg, 3 weekly cycles, tumors 400 mm3) was “led to regression of MC tumors”. Besides, the “tumor regression and CTL activation after T cell ± B cell transfer” value with Myc-Cap (MC) tumors (MC tumors in Rag1−/− mice) is “induced tumor regression and CTL activation only in mice receiving T cells, or T cells+TGFβR2-deficient B cells”. In addition, in the assay on Myc-Cap (MC) tumors (WT and Jh−/− mice), the “tumor infiltration with CD45+ cells” value is “enhanced tumor infiltration with CD45^+ cells”. Further, the “response of small MC tumors (≤100 mm3)” value in the assay with Myc-Cap (MC) tumors (WT mice, early treatment) was “chemotherapy responsive”. For the same molecule, in the assay on Myc-Cap (MC) tumors (WT versus Jh−/− mice, late treatment), the “response of large MC tumors (≥350-400 mm3)” value is given as “shrank upon oxaliplatin treatment only in Jh^−/− mice”. Besides, in the assay on Myc-Cap (MC) tumors (associated with oxaliplatin responsiveness), the “caspase 3 activation in tumors (apoptosis)” value is reported as “enhanced caspase 3 activation”. Also, the “tumoral DNA damage response (histone H2AX phosphorylation)” value in the assay on Myc-Cap (MC) tumors (regardless of host genotype) is given as “similarly activated”. Also, in the assay on Myc-Cap (MC) cells (24 hrs, both at 20 µM), the “apoptotic cell death of MC cells (Annexin V, propidium iodide)” value was “induced apoptotic cell death”. For the same molecule, in the assay on Myc-Cap (MC) cells (MC cells, 24 hrs, 20 µM, compared with cisplatin), the “stimulation of autophagy (LC3A)” value is recorded as “more effective in stimulating autophagy”. In addition, the “cells positive for Annexin V and PI (extent of cell death)” value in the assay with Myc-Cap (MC) cells (Myc-Cap cells, oxaliplatin 40 μM, 48 hrs, flow cytometry) was “more than 90%”. The “TRAMP-C2 tumor rejection, oxaliplatin combined with ATCT” value in the assay on TRAMP-C2 tumors (B cell-containing Tcrβ−/− mice) was “no tumor rejection took place”. Besides, the “TRAMP-C2 tumor growth, ATCT together with oxaliplatin” value in the assay on TRAMP-C2 tumors (Rag1−/−, OT-1 mice (no B cells)) is recorded as “tumor growth was inhibited”.
